Source: PMC7051831 (ACS chemical biology, 2019)
“Also recorded” adds a separate entry of the source. Like-named read-outs stand apart in the source and are kept apart here.

Assays:
[1] = cited from earlier work
[2] = target: T1, interleukin-1β (IL-1β) (Homo sapiens, UniProt P01584); type: binding; conditions: IL-1β in LDAO/10MAG reverse micelles; for extent of binding across the protein surface (in words): Figure 1
[3] = alkane/water partitioning by simple NMR method; type: physicochemical; conditions: alkane (pentane)/water partitioning
[4] = target: T1, interleukin-1β (IL-1β); assay: ethanol titration under standard bulk conditions compared with RM titration

T1 sequence (P01584 117-269): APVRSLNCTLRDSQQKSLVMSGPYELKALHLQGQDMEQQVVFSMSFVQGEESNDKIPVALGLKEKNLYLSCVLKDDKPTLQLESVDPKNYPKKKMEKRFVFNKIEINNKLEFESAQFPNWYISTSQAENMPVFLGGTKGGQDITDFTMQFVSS

Structure (SMILES)	binding affinity (in words) [2]	extent of binding across the protein surface (in words) [2]	other results
CCCCCCCCCCCC[N+](C)(C)[O-] [LDAO]	–	–	pKa [1]: ~ 5
CNC(C)=O [N-methylacetamide]	relatively weak binding affinities; also recorded: more diffuse and weak	relatively sparse binding across the protein surface	–
CC#N [acetonitrile]	more diffuse and weak	relatively sparse binding across the protein surface	fraction of molecules retained in the RM [3]: over one-third; binding affinity (in words) ([2]; listed as Acetonitrile): relatively weak binding affinities
CCO [ethanol]	more specific and with a relatively higher affinity	binding is limited to fewer sites	binding affinity (in words) ([2]; listed as Ethanol): relatively high binding affinity within a narrow Kd range; binding in RMs compared with bulk (in words) [4]: binds slightly more weakly to the protein in RMs than in bulk
c1c[nH]cn1 [imidazole]	more specific and with a relatively higher affinity	bind at a larger number of sites	–
CN [methylammonium]	–	bind at a larger number of sites	–
c1cncnc1 [pyrimidine]	–	bind at a larger number of sites	fraction of molecules retained in the RM [3]: over one-third
